≈ marks a conversion by molar mass, not a printed value.
Key:
[1] = test system: Acinetobacter baumannii NCTC 13420; test: MIC, broth microdilution (CLSI) versus planktonic bacteria; assay type: cell-based; conditions: NCTC13420; Acinetobacter baumannii NCTC 13420; 16-20 h; mode of three independent experiments; read-out: MIC, Ab NCTC 13420
[2] = test system: human hepatic cell line (HepG2 ATCC HB-8065); test: Human cell viability assay (CellTiter-Glo); conditions: Homo sapiens, HepG2, 24 h, read-out: IC50 (μg/mL) HepG2
[3] = test system: E. coli NCTC 13476; test: MIC, broth microdilution (CLSI) versus planktonic bacteria; assay type: cell-based; conditions: NCTC13476; Escherichia coli NCTC 13476; 16-20 h; mode of three independent experiments; read-out: MIC, Ec NCTC 13476
[4] = test system: Staphylococcus aureus ATCC 29213; test: as above; assay type: cell-based; conditions: ATCC29213; Staphylococcus aureus ATCC 29213; 16-20 h; mode of three independent experiments; read-out: MIC, Sa ATCC 29213
[5] = test system: Streptococcus pneumoniae ATCC 49619; test: as above; assay type: cell-based; conditions: ATCC49619; Streptococcus pneumoniae ATCC 49619; 16-20 h; mode of three independent experiments; read-out: MIC, Sp ATCC 49619
[6] = test system: Acinetobacter baumannii ATCC 19606; test: as above; assay type: cell-based; conditions: ATCC19606; Acinetobacter baumannii ATCC 19606; 16-20 h; mode of three independent experiments; read-out: MIC, Ab ATCC 19606
[7] = test system: Enterobacter cloacae NCTC 13406; test: as above; assay type: cell-based; conditions: NCTC13406; Enterobacter cloacae NCTC 13406; 16-20 h; mode of three independent experiments; read-out: MIC, Ecl NCTC 13406
[8] = test system: Haemophilus influenzae ATCC 49247; test: as above; assay type: cell-based; conditions: ATCC49247; Haemophilus influenzae ATCC 49247; 16-20 h; mode of three independent experiments; read-out: MIC, Hi ATCC 49247
[9] = test system: E. coli MG1655 S83L; assay type: cell-based, Escherichia coli; conditions: compared to the isogenic parent strain E. coli MG1655; S83L mutation on DNA gyrase subunit GyrA
[10] = test system: E. coli MG1655 D87G; assay type: cell-based, Escherichia coli; conditions: compared to the isogenic parent strain E. coli MG1655; D87G mutation on DNA gyrase subunit GyrA
[11] = test system: Enterococcus faecium ATCC 19434; test: MIC, broth microdilution (CLSI) versus planktonic bacteria; assay type: cell-based; conditions: ATCC19434, 16-20 h, mode of three independent experiments, read-out: MIC, Efm ATCC 19434
[12] = test system: Escherichia coli ATCC 25922; test: as above; assay type: cell-based; conditions: ATCC25922; Escherichia coli ATCC 25922; 16-20 h; mode of three independent experiments; read-out: MIC, Ec ATCC 25922
[13] = test system: Pseudomonas aeruginosa ATCC 27853; test: as above; assay type: cell-based; conditions: ATCC27853; Pseudomonas aeruginosa ATCC 27853; 16-20 h; mode of three independent experiments; read-out: MIC, Pa ATCC 27853
[14] = test system: E. coli MG1655; test: as above; assay type: cell-based, Escherichia coli; conditions: Escherichia coli, MG1655, read-out: MIC, Ec MG1655 WT
[15] = test system: E. coli ATCC BAA-2452; test: as above; assay type: cell-based; conditions: Escherichia coli ATCC BAA-2452; 16-20 h; mode of three independent experiments; read-out: MIC, Ec ATCC BAA 2452
[16] = test system: fluoroquinolone-resistant Enterococcus faecium ATCC 700221; test: as above; assay type: cell-based; conditions: ATCC700221, 16-20 h, mode of three independent experiments, read-out: MIC, Efm ATCC 700221
[17] = test system: Enterococcus faecalis ATCC 29212; test: as above; assay type: cell-based; conditions: ATCC29212, 16-20 h, mode of three independent experiments, read-out: MIC, Ef ATCC 29212

Row | SMILES | MIC [1] | IC50 [2] | MIC [3] | MIC [4] | MIC [5] | MIC [6] | MIC [7] | MIC [8] | Fold increase in MIC, E. coli MG1655 S83L [9] | Fold increase in MIC, E. coli MG1655 D87G [10] | MIC [11] | MIC [12] | MIC [13] | MIC [14] | MIC [15] | MIC [16] | MIC [17]
1 | N#Cc1cnc2ccc(=O)n(CCN[C@H]3CC[C@H]4[C@H](C3)OC(=O)N4c3ccc4c(n3)NC(=O)CS4)c2c1 [Compound 77, 5-(2-{[(3aS,6S,7aS)-2-oxo-3-{3-oxo-2H,3H,4H-pyrido[3,2-b][1,4]thiazin-6-yl}-octahydro-1,3-benzoxazol-6-yl]amino}ethyl)-6-oxo-5,6-dihydro-1,5-naphthyridine-3-carbonitrile] | < 1 µg/mL | > 100 µg/mL | < 1 µg/mL | < 1 µg/mL | < 1 µg/mL | < 1 µg/mL | < 1 µg/mL | < 1 µg/mL | 1 fold | 1 fold | < 1 µg/mL | < 1 µg/mL | 1 to 10 µg/mL (≈ 1.93 to 19.3 µM) | < 1 µg/mL | < 1 µg/mL | – | –
2 | COc1ccc2ncc(=O)n(CCNC3CCC4C(C3)OC(=O)N4c3ccc4c(n3)NC(=O)CO4)c2n1 (stereo in doubt) [Compound 43, (3aR,6R,7aR)-6-[(2-{6-methoxy-3-oxo-3H,4H-pyrido[2,3-b]pyrazin-4-yl}ethyl)amino]-3-{3-oxo-2H,3H,4H-pyrido[3,2-b][1,4]oxazin-6-yl}-octahydro-1,3-benzoxazol-2-one] | < 1 µg/mL | > 100 µg/mL | < 1 µg/mL | < 1 µg/mL | < 1 µg/mL | < 1 µg/mL | < 1 µg/mL | < 1 µg/mL | 1 fold | 0.5 fold | < 1 µg/mL | < 1 µg/mL | < 1 µg/mL | < 1 µg/mL | < 1 µg/mL | < 1 µg/mL | < 1 µg/mL
3 | COc1cnc2ccc(=O)n(CCN[C@@H]3CC[C@@H]4[C@@H](C3)OC(=O)N4c3ccc4c(n3)NC(=O)CO4)c2n1 [Compound 87, (3aR,6R,7aR)-6-[(2-{3-methoxy-6-oxo-5H,6H-pyrido[2,3-b]pyrazin-5-yl}ethyl)amino]-3-{3-oxo-2H,3H,4H-pyrido[3,2-b][1,4]oxazin-6-yl}-octahydro-1,3-benzoxazol-2-one] | < 1 µg/mL | 10 to 100 µg/mL (≈ 19.7 to 197 µM) | < 1 µg/mL | < 1 µg/mL | < 1 µg/mL | < 1 µg/mL | < 1 µg/mL | < 1 µg/mL | 2 fold | 2 fold | 1 to 10 µg/mL (≈ 1.97 to 19.7 µM) | < 1 µg/mL | < 1 µg/mL | < 1 µg/mL | < 1 µg/mL | – | < 1 µg/mL
4 | COc1cnc2ccc(=O)n(CCN[C@H]3CC[C@H]4[C@H](C3)OC(=O)N4c3ccc4c(n3)NC(=O)CS4)c2c1 [Compound 81, 1-(2-{[(3aS,6S,7aS)-2-oxo-3-{3-oxo-2H,3H,4H-pyrido[3,2-b][1,4]thiazin-6-yl}-octahydro-1,3-benzoxazol-6-yl]amino}ethyl)-7-methoxy-1,2-dihydro-1,5-naphthyridin-2-one] | < 1 µg/mL | 10 to 100 µg/mL (≈ 19.1 to 191 µM) | < 1 µg/mL | < 1 µg/mL | < 1 µg/mL | < 1 µg/mL | < 1 µg/mL | < 1 µg/mL | 1 fold | 1 fold | < 1 µg/mL | < 1 µg/mL | 1 to 10 µg/mL (≈ 1.91 to 19.1 µM) | < 1 µg/mL | < 1 µg/mL | < 1 µg/mL | < 1 µg/mL
5 | COc1cnc2ccc(=O)n(CCN[C@H]3CC[C@H]4[C@H](C3)OC(=O)N4c3ccc4c(n3)NC(=O)CO4)c2n1 [Compound 63, (3aS,6S,7aS)-6-[(2-{3-methoxy-6-oxo-5H,6H-pyrido[2,3-b]pyrazin-5-yl}ethyl)amino]-3-{3-oxo-2H,3H,4H-pyrido[3,2-b][1,4]oxazin-6-yl}-octahydro-1,3-benzoxazol-2-one] | < 1 µg/mL | > 100 µg/mL | < 1 µg/mL | < 1 µg/mL | < 1 µg/mL | < 1 µg/mL | < 1 µg/mL | < 1 µg/mL | 1 fold | 1 fold | – | < 1 µg/mL | < 1 µg/mL | < 1 µg/mL | < 1 µg/mL | – | < 1 µg/mL
6 | N#Cc1ccc2ccc(=O)n(CCN[C@@H]3CC[C@@H]4[C@@H](C3)OC(=O)N4c3ccc4c(n3)NC(=O)CO4)c2c1 [Compound 59, 1-(2-{[(3aR,6R,7aR)-2-oxo-3-{3-oxo-2H,3H,4H-pyrido[3,2-b][1,4]oxazin-6-yl}-octahydro-1,3-benzoxazol-6-yl]amino}ethyl)-2-oxo-1,2-dihydroquinoline-7-carbonitrile] | < 1 µg/mL | 10 to 100 µg/mL (≈ 20 to 200 µM) | < 1 µg/mL | < 1 µg/mL | < 1 µg/mL | < 1 µg/mL | < 1 µg/mL | < 1 µg/mL | 1 fold | 1 fold | < 1 µg/mL | < 1 µg/mL | < 1 µg/mL | < 1 µg/mL | < 1 µg/mL | < 1 µg/mL | < 1 µg/mL
7 | COc1ccc2ccc(=O)n(CCN[C@H]3CC[C@H]4[C@H](C3)OC(=O)N4c3ccc4c(n3)NC(=O)CO4)c2n1 [Compound 29, 1-(2-{[(3aS,6S,7aS)-2-oxo-3-{3-oxo-2H,3H,4H-pyrido[3,2-b][1,4]oxazin-6-yl}-octahydro-1,3-benzoxazol-6-yl]amino}ethyl)-7-methoxy-1,2-dihydro-1,8-naphthyridin-2-one] | < 1 µg/mL | 10 to 100 µg/mL (≈ 19.7 to 197 µM) | – | < 1 µg/mL | < 1 µg/mL | < 1 µg/mL | < 1 µg/mL | < 1 µg/mL | 1 fold | 2 fold | < 1 µg/mL | < 1 µg/mL | < 1 µg/mL | < 1 µg/mL | < 1 µg/mL | < 1 µg/mL | < 1 µg/mL
8 | O=C1COc2ccc(N3C(=O)O[C@H]4C[C@@H](NCCn5c(=O)cnc6cc(F)c(F)cc65)CC[C@@H]43)nc2N1 [Compound 34, 1-(2-{[(3aS,6S,7aS)-2-oxo-3-{3-oxo-2H,3H,4H-pyrido[3,2-b][1,4]oxazin-6-yl}-octahydro-1,3-benzoxazol-6-yl]amino}ethyl)-6,7-difluoro-1,2-dihydroquinoxalin-2-one] | < 1 µg/mL | – | < 1 µg/mL | < 1 µg/mL | < 1 µg/mL | < 1 µg/mL | < 1 µg/mL | < 1 µg/mL | 1 fold | 2 fold | < 1 µg/mL | < 1 µg/mL | 1 to 10 µg/mL (≈ 1.95 to 19.5 µM) | < 1 µg/mL | < 1 µg/mL | < 1 µg/mL | < 1 µg/mL
9 | COc1ccc2ccc(=O)n(CCN[C@H]3CC[C@H]4[C@H](C3)OC(=O)N4c3ccc4c(n3)NC(=O)CO4)c2c1 [Compound 102, 1-(2-{[(3aS,6S,7aS)-2-oxo-3-{3-oxo-2H,3H,4H-pyrido[3,2-b][1,4]oxazin-6-yl}-octahydro-1,3-benzoxazol-6-yl]amino}ethyl)-7-methoxy-1,2-dihydroquinolin-2-one] | < 1 µg/mL | 10 to 100 µg/mL (≈ 19.8 to 198 µM) | < 1 µg/mL | < 1 µg/mL | < 1 µg/mL | < 1 µg/mL | < 1 µg/mL | – | 2 fold | 2 fold | < 1 µg/mL | < 1 µg/mL | 1 to 10 µg/mL (≈ 1.98 to 19.8 µM) | < 1 µg/mL | < 1 µg/mL | < 1 µg/mL | < 1 µg/mL
